We go through 39 compounds from patent publication US6916798B2, “Inhibitors of GSK-3 and uses thereof” (Vertex Pharmaceuticals Incorporated, priority 2001, dated 2005).

Common to all, as to format: biochemical
For one experiment, the target named is T1, Aurora-2 (Homo sapiens, UniProt O14965).
T1 sequence (O14965 1-403): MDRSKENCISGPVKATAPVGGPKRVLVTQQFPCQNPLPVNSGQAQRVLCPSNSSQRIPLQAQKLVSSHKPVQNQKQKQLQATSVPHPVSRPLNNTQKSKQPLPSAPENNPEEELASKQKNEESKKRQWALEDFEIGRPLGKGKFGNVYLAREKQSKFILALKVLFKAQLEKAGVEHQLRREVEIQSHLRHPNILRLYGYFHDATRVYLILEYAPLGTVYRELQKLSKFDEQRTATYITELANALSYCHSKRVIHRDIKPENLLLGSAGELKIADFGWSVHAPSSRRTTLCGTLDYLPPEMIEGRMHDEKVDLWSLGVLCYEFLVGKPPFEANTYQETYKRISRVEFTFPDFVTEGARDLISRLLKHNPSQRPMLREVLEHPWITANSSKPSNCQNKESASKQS
As to the kind of experiment: Ki determination for the inhibition of Aurora-2, standard coupled enzyme assay. The note with it: 70 nM Aurora-2, 800 μM peptide LRRASLG, 30° C. On the procedure: Compounds were screened in the following manner for their ability to inhibit Aurora-2 using a standard coupled enzyme assay (Fox et al. (1998) Protein Sci. 7, 2249).
(§1) To an assay stock buffer solution containing 0.1M HEPES 7.5, 10 mM MgCl2, 1 mM DTT, 25 mM NaCl, 2.5 mM phosphoenolpyruvate, […], 30 mg/ml pyruvate kinase, 10 mg/ml lactate dehydrogenase, 40 mM ATP, and 800 μM peptide (LRRASLG, American Peptide, Sunnyvale, Calif.) was added a DMSO solution of a compound of the present invention to a final concentration of 30 μM. The resulting mixture was incubated at 30° C. for 10 min. The reaction was initiated by the addition of 10 μL of Aurora-2 stock solution to give a final concentration of 70 nM in the assay. The rates of reaction were obtained by monitoring absorbance at 340 nm over a 5 minute read time at 30° C. using a BioRad Ultramark plate reader (Hercules, Calif.). The Ki values were determined from the rate data as a function of inhibitor concentration.

In a further experiment the target is T2, GSK-3β (AA 1-420) (Homo sapiens, UniProt P49841).
T2 construct: GSK-3β (AA 1-420)
As to the kind of experiment: Ki determination for the inhibition of GSK-3, standard coupled enzyme system. The note with it: 20 μM ATP, 300 μM peptide, 20 nM GSK-3β, 30° C.; read-out: Ki values for GSK-3. The method, then: Final substrate concentrations in the assay were 20 μM ATP (Sigma Chemicals, St Louis, Mo.) and 300 μM peptide (HSSPHQS(PO3H2)EDEEE, American Peptide, Sunnyvale, Calif.). Reactions were carried out at 30° C. and 20 nM GSK-3β. Final concentrations of the components of the coupled enzyme system were 2.5 mM phosphoenolpyruvate, 300 μM NADH, 30 μg/ml pyruvate kinase and 10 μg/ml lactate dehydrogenase.
An assay stock buffer solution was prepared containing all of the reagents listed above with the exception of ATP and the test compound of interest. The assay stock buffer solution (175 μl) was incubated in a 96 well plate with 5 μl of the test compound of interest at final concentrations spanning 0.002 μM to 30 μM at 30 ° C. for 10 min. […] The reaction was initiated by the addition of 20 μl of ATP (final concentration 20 μM). Rates of reaction were obtained using a Molecular Devices Spectramax plate reader (Sunnyvale, Calif.) over 10 min at 30° C. The Ki values were determined from the rate data as a function of inhibitor concentration.

A further experiment addresses CDK-2/Cyclin A (Homo sapiens, UniProt P24941). The experiment is described as follows: Inhibition of CDK-2, standard coupled enzyme assay. The note with it: 25 nM CDK-2/Cyclin A, 100 μM peptide, 30° C. On the procedure: Compounds were screened in the following manner for their ability to inhibit CDK-2 using a standard coupled enzyme assay (Fox et al (1998) Protein Sci 7, 2249).
as §1, with “[…], […]” for “dehydrogenase, 40”, “and 100” for “and 800”, “peptide ([…],” for “peptide (LRRASLG,”, “of CDK-2/Cyclin A” for “of Aurora-2”, “of 25” for “of 70”, “a 5-minute” for “a 5 minute”

T2 sequence (P49841 whole entry, the tested form may be a part): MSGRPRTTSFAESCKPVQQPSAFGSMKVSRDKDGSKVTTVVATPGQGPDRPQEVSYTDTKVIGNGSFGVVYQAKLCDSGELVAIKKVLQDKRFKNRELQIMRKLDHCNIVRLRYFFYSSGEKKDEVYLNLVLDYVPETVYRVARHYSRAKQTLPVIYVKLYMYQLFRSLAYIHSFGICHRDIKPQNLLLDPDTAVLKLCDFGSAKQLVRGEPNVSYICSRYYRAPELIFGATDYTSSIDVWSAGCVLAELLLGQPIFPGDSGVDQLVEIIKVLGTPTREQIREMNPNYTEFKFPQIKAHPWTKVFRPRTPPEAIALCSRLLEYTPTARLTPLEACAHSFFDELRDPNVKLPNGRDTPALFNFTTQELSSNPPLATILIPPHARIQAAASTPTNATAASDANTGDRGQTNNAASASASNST

Take `COc1ccc(N/N=C2\C(=O)NN=C2c2cc(OC)c(OC)c(OC)c2)cc1` [Compound 22]: the Ki at Aurora-2 and on GSK-3β (AA 1-420) was less than 100 nM each time.

In the case of `COc1cc(C2=NNC(=O)C2=NNc2ccc(Cl)cc2)cc(OC)c1OC` [Compound 23], the Ki at Aurora-2 and at GSK-3β (AA 1-420) was less than 100 nM throughout. Consider `CCN(CC)c1ccc(N/N=C2\C(=O)NN=C2c2ccc(OC)c(OC)c2)cc1` [Compound 37], for which the Ki at Aurora-2 and on GSK-3β (AA 1-420) was less than 100 nM each time. Take `COc1ccc(C2=NNC(=O)/C2=N\Nc2ccc(Cl)cc2)cc1` [Compound 43]: the Ki at Aurora-2 is 100 to 1000 nM; on GSK-3β (AA 1-420), less than 100 nM. The like results for `COc1ccc(N/N=C2\C(=O)NN=C2c2ccc(OC)c(OC)c2)cc1` [Compound 47] were, in that order, less than 100 nM and less than 100 nM. For `COc1ccc(C2=NNC(=O)/C2=N\Nc2ccc(N(C)C)cc2)cc1OC` [Compound 52] the same measures were less than 100 nM and less than 100 nM. For `COc1ccc(C2=NNC(=O)/C2=N\Nc2ccc(C#N)cc2)cc1OC` [Compound 58] the same measures were 100 to 1000 nM and less than 100 nM.

Consider `COc1ccc(C2=NNC(=O)/C2=N\Nc2ccc(N3CCOCC3)cc2)cc1` [Compound 60], for which the Ki on Aurora-2 was 100 to 1000 nM; on GSK-3β (AA 1-420), less than 100 nM. For `COc1ccc(C2=NNC(=O)/C2=N\Nc2ccc(N3CCOCC3)cc2)cc1OC` [Compound 61], the Ki on Aurora-2 and on GSK-3β (AA 1-420) was less than 100 nM throughout. Consider `COc1cccc(C2=NNC(=O)/C2=N\Nc2ccc(N3CCOCC3)cc2)c1` [Compound 62], for which the Ki at Aurora-2 is 100 to 1000 nM; at GSK-3β (AA 1-420) it was less than 100 nM. The like results for `COc1ccc(C2=NNC(=O)/C2=N\Nc2cccc(Cl)c2)cc1OC` [Compound 70] were, in that order, 100 to 1000 nM and less than 100 nM. The like results for `COc1cccc(N/N=C2\C(=O)NN=C2c2ccc(OC)c(OC)c2)c1` [Compound 73] were, in that order, less than 100 nM and less than 100 nM.

For `COc1ccc(C2=NNC(=O)C2=NNc2ccc(Oc3ccccc3)cc2)cc1OC` [Compound 86], the Ki on Aurora-2 and at GSK-3β (AA 1-420) was less than 100 nM throughout. Consider `COc1ccc(C2=NNC(=O)C2=CNc2ccc(Oc3ccccc3)cc2)cc1` [Compound 91], for which the Ki lay within 1000 to 20000 nM on CDK-2/Cyclin A and 100 to 1000 nM on GSK-3β (AA 1-420). For `COc1ccc(C2=NNC(=O)C2=CNc2cccc(OCc3ccccc3)c2)cc1OC` [Compound 92, 4-[(3-Benzyloxy-phenylamino)-methylene]-5-(3,4-dimethoxy-phenyl)-2,4-dihydro-pyrazol-3-one] the same measures were 1000 to 20000 nM and 100 to 1000 nM. For `COc1ccc(C2=NNC(=O)C2=CNc2cccc(C(=O)c3ccccc3)c2)cc1` [Compound 93] the same measures were 1000 to 20000 nM and 100 to 1000 nM. As to `COc1ccc(C2=NNC(=O)C2=CNc2cccc(S(N)(=O)=O)c2)cc1OC` [Compound 95, 3-{[3-(3,4-Dimethoxy-phenyl)-5-oxo-1,5-dihydro-pyrazol-4-ylidenemethyl]-amino}-benzenesulfonamide], the Ki at CDK-2/Cyclin A was in the range of 1000 to 20000 nM; at GSK-3β (AA 1-420), 100 to 1000 nM.

`COc1ccc(C2=NNC(=O)C2=CNc2ccc3c(c2)NCC3)cc1` [Compound 96]: the figures for the Ki on CDK-2/Cyclin A and at GSK-3β (AA 1-420) were 1000 to 20000 nM and 100 to 1000 nM, respectively. For `COc1ccc(C2=NNC(=O)C2=CNc2ccc3c(c2)N(C(C)=O)CC3)cc1` [Compound 97] the same measures were 1000 to 20000 nM and less than 100 nM. The like results for `COc1ccc(C2=NNC(=O)C2=CNc2ccc(OC)c(O)c2)cc1` [Compound 98] were, in that order, 100 to 1000 nM and less than 100 nM. Regarding `COc1cc(C2=NNC(=O)C2=NNc2ccc(N3CCOCC3)cc2OC)ccc1O` [Compound 113, 5-(4-Hydroxy-3-methoxy-phenyl)-4-[(2-methoxy-4-morpholin-4-yl-phenyl)-hydrazono]-2,4-dihydro-pyrazol-3-one], on GSK-3β (AA 1-420), the Ki fell in the range of 100 to 1000 nM. The same measure, in the same setting: the same measure for `COc1ccc(C2=NNC(=O)C2=NNc2ccc(OC)c(N3CCOCC3)c2)cc1OC` [Compound 123, 5-(3,4-Dimethoxy-phenyl)-4-[(4-methoxy-3-morpholin-4-yl-phenyl)-hydrazono]-2,4-dihydro-pyrazol-3-one]: less than 100 nM. On the same count and under the same terms, under `COc1ccc(NN=C2C(=O)NN=C2c2cc(OC)c(OC)c(OC)c2)cc1N1CCOCC1` [Compound 124, 4-[(4-Methoxy-3-morpholin-4-yl-phenyl)-hydrazono]-5-(3,4,5-trimethoxy-phenyl)-2,4-dihydro-pyrazol-3-one] stands less than 100 nM; under `COc1ccc(C2=NNC(=O)C2=NNc2ccc(OC)c(N3CCN(C)CC3)c2)cc1OC` [Compound 125, 5-(3,4-Dimethoxy-phenyl)-4-{[4-methoxy-3-(4-methyl-piperazin-1-yl)-phenyl]-hydrazono}-2,4-dihydro-pyrazol-3-one], less than 100 nM. Still for that read-out and setting: the same measure for `COc1cc(C2=NNC(=O)C2=NNc2ccc(OC)c(N3CCN(C)CC3)c2)ccc1OCc1ccccc1` [Compound 126, 5-(4-Benzyloxy-3-methoxy-phenyl)-4-{[4-methoxy-3-(4-methyl-piperazin-1-yl)-phenyl]-hydrazono}-2,4-dihydro-pyrazol-3-one]: less than 100 nM; for `COc1ccc(C2=NNC(=O)C2=NNc2cccc(-c3ccccc3)c2)cc1` [Compound 203]: less than 100 nM; for `COc1ccc(C2=NNC(=O)C2=NNc2cccc(-c3ccccc3)c2)cc1OC` [Compound 204]: less than 100 nM. For `O=C1NN=C(c2ccc(N3CCOCC3)cc2)C1=NNc1cccc(-c2ccccc2)c1` [Compound 205], the Ki at GSK-3β (AA 1-420) was less than 100 nM.

As to `COc1ccc(C2=NNC(=O)C2=NNc2ccc3c(c2)C(=O)c2ccccc2-3)cc1` [Compound 206], the Ki at GSK-3β (AA 1-420) is less than 100 nM. In the case of `COc1ccc(C2=NNC(=O)C2=NNc2ccc3c(c2)C(=O)c2ccccc2-3)cc1OC` [Compound 207], the Ki at GSK-3β (AA 1-420) is less than 100 nM. Still for that read-out and setting: the same measure for `O=C1NN=C(c2ccc(N3CCOCC3)cc2)C1=NNc1ccc2c(c1)C(=O)c1ccccc1-2` [Compound 208]: less than 100 nM; for `COc1ccc(C2=NNC(=O)C2=NNc2ccc3c(c2)OCO3)cc1` [Compound 213]: less than 100 nM.

Turning to `CCn1c2ccccc2c2cc(NN=C3C(=O)NN=C3c3ccc(OC)cc3)ccc21` [Compound 217], the Ki at GSK-3β (AA 1-420) was less than 100 nM.

Turning to `CCn1c2ccccc2c2cc(NN=C3C(=O)NN=C3c3ccc(OC)c(OC)c3)ccc21` [Compound 218], at GSK-3β (AA 1-420), the inhibition constant (Ki) is less than 100 nM. Same read-out and setting: under `COc1ccc(C2=NNC(=O)C2=NNc2ccc(OC)c(-c3ccccc3)c2)cc1` [Compound 220] stands less than 100 nM.

For the compound `CCN(CCO)c1ccc(NN=C2C(=O)NN=C2c2cc(OC)c(OC)c(OC)c2)cc1` [Compound 223], the Ki on Aurora-2 and on GSK-3β (AA 1-420) was less than 100 nM in each case.

On to `COc1ccc(Nc2ccc(NC=C3C(=O)NN=C3c3ccc(OC)cc3)cc2)cc1` [Compound 224], for which, at GSK-3β (AA 1-420), the Ki fell in the range of 100 to 1000 nM. Same read-out and setting: the same measure for `COc1cc(C2=NNC(=O)C2=NNc2ccc(OC)c(Br)c2)ccc1O` [Compound 225]: less than 100 nM; for `COc1cc(C2=NNC(=O)C2=CNc2cc(C)[nH]n2)cc(OC)c1OC` [Compound 227]: 100 to 1000 nM.
